Reference: ChEMBL document CHEMBL5724806, “Unraveling interindividual differences and functional consequences of gut microbial metabolism of immunosuppressants” (2024)

What was measured:
Assay type in all cases: ADME
[1] = (§1) The drug is tested on the gut metagenome community of A-09 with ENA study accession number: PRJEB31790 for biotransformation under anaerobic condition. The drug concentrations were measured over 7 timepoints collected between 0 and 12 hours of incubation by liquid-chromatography-coupled mass spectrometry (LC–MS); parameters: dose 5 uM, timepoint 0, 0.75, 1.5, 3, 6, 9, 12 hours; details: 5 µM
[2] = The drug is tested on Lactobacillus fermentum strain: DSM20052 for biotransformation under anaerobic condition. The drug concentrations were measured over 6 timepoints collected between 0 and 12 hours of incubation by liquid-chromatography-coupled mass spectrometry (LC–MS); parameters: dose 5 uM, timepoint 0, 1.5, 3, 6, 9, 12 hours; details: limosilactobacillus fermentum, 5 µM
[3] = as §1, with “P-04” for “A-09”, “microaerobic” for “anaerobic”; parameters: dose 5 uM, timepoint 0, 0.75, 1.5, 3, 6, 9, 12 hours; details: 5 µM
[4] = The drug is tested on Lactobacillus ruminis strain: ATCC25644 for biotransformation under anaerobic condition. The drug concentrations were measured over 6 timepoints collected between 0 and 12 hours of incubation by liquid-chromatography-coupled mass spectrometry (LC–MS); parameters: dose 5 uM, timepoint 0, 1.5, 3, 6, 9, 12 hours; details: ligilactobacillus ruminis, 5 µM
[5] = The drug is tested on Streptococcus salivarius strain: DSM20560 for biotransformation under microaerobic condition. The drug concentrations were measured over 6 timepoints collected between 0 and 12 hours of incubation by liquid-chromatography-coupled mass spectrometry (LC–MS); parameters: dose 5 uM, timepoint 0, 1.5, 3, 6, 9, 12 hours; details: 5 µM
[6] = The drug is tested on Bacteroides caccae strain: DSM19024 for biotransformation under anaerobic condition. The drug concentrations were measured over 6 timepoints collected between 0 and 12 hours of incubation by liquid-chromatography-coupled mass spectrometry (LC–MS); parameters: dose 5 uM, timepoint 0, 1.5, 3, 6, 9, 12 hours; details: 5 µM
[7] = The drug is tested on Bacteroides fragilis strain: DSM2151 for biotransformation under anaerobic condition. The drug concentrations were measured over 6 timepoints collected between 0 and 12 hours of incubation by liquid-chromatography-coupled mass spectrometry (LC–MS); parameters: dose 5 uM, timepoint 0, 1.5, 3, 6, 9, 12 hours; details: 5 µM
[8] = as §1, with “P-01” for “A-09”, “microaerobic” for “anaerobic”; parameters: dose 5 uM, timepoint 0, 0.75, 1.5, 3, 6, 9, 12 hours; details: 5 µM
[9] = The drug is tested on Alloscardovia omnicolens strain: DSM21503 for biotransformation under anaerobic condition. The drug concentrations were measured over 6 timepoints collected between 0 and 12 hours of incubation by liquid-chromatography-coupled mass spectrometry (LC–MS); parameters: dose 5 uM, timepoint 0, 1.5, 3, 6, 9, 12 hours; details: 5 µM
[10] = as §1, with “microaerobic” for “anaerobic”; parameters: dose 5 uM, timepoint 0, 0.75, 1.5, 3, 6, 9, 12 hours; details: 5 µM
[11] = The drug is tested on Clostridium ramosum strain: DSM1402 for biotransformation under anaerobic condition. The drug concentrations were measured over 6 timepoints collected between 0 and 12 hours of incubation by liquid-chromatography-coupled mass spectrometry (LC–MS); parameters: dose 5 uM, timepoint 0, 1.5, 3, 6, 9, 12 hours; details: thomasclavelia ramosa, 5 µM
[12] = as §1, with “A-10” for “A-09”; parameters: dose 5 uM, timepoint 0, 0.75, 1.5, 3, 6, 9, 12 hours; details: 5 µM
[13] = The drug is tested on Streptococcus sanguinis strain: DSM20567 for biotransformation under microaerobic condition. The drug concentrations were measured over 6 timepoints collected between 0 and 12 hours of incubation by liquid-chromatography-coupled mass spectrometry (LC–MS); parameters: dose 5 uM, timepoint 0, 1.5, 3, 6, 9, 12 hours; details: 5 µM
[14] = The drug is tested on Clostridium scindens strain: DSM5676 for biotransformation under anaerobic condition. The drug concentrations were measured over 6 timepoints collected between 0 and 12 hours of incubation by liquid-chromatography-coupled mass spectrometry (LC–MS); parameters: dose 5 uM, timepoint 0, 1.5, 3, 6, 9, 12 hours; details: 5 µM
[15] = as §1, with “A-06” for “A-09”; parameters: dose 5 uM, timepoint 0, 0.75, 1.5, 3, 6, 9, 12 hours; details: 5 µM
[16] = The drug is tested on Enterococcus faecalis strain: ATCC29212 for biotransformation under anaerobic condition. The drug concentrations were measured over 6 timepoints collected between 0 and 12 hours of incubation by liquid-chromatography-coupled mass spectrometry (LC–MS); parameters: dose 5 uM, timepoint 0, 1.5, 3, 6, 9, 12 hours; details: 5 µM
[17] = The drug is tested on Lactobacillus ruminis strain: ATCC25644 for biotransformation under microaerobic condition. The drug concentrations were measured over 6 timepoints collected between 0 and 12 hours of incubation by liquid-chromatography-coupled mass spectrometry (LC–MS); parameters: dose 5 uM, timepoint 0, 1.5, 3, 6, 9, 12 hours; details: ligilactobacillus ruminis, 5 µM
[18] = The drug is tested on Bacteroides xylanisolvens strain: HM 722 for biotransformation under anaerobic condition. The drug concentrations were measured over 6 timepoints collected between 0 and 12 hours of incubation by liquid-chromatography-coupled mass spectrometry (LC–MS); parameters: dose 5 uM, timepoint 0, 1.5, 3, 6, 9, 12 hours; details: 5 µM
[19] = The drug is tested on Lactobacillus gasseri strain: DSM20243 for biotransformation under microaerobic condition. The drug concentrations were measured over 6 timepoints collected between 0 and 12 hours of incubation by liquid-chromatography-coupled mass spectrometry (LC–MS); parameters: dose 5 uM, timepoint 0, 1.5, 3, 6, 9, 12 hours; details: 5 µM
[20] = The drug is tested on Lactobacillus fermentum strain: DSM20052 for biotransformation under microaerobic condition. The drug concentrations were measured over 6 timepoints collected between 0 and 12 hours of incubation by liquid-chromatography-coupled mass spectrometry (LC–MS); parameters: dose 5 uM, timepoint 0, 1.5, 3, 6, 9, 12 hours; details: limosilactobacillus fermentum, 5 µM
[21] = The drug is tested on Eubacterium hallii strain: DSM3353 for biotransformation under anaerobic condition. The drug concentrations were measured over 6 timepoints collected between 0 and 12 hours of incubation by liquid-chromatography-coupled mass spectrometry (LC–MS); parameters: dose 5 uM, timepoint 0, 1.5, 3, 6, 9, 12 hours; details: anaerobutyricum hallii, 5 µM
[22] = The drug is tested on Gemella haemolysans strain: DSM107751 for biotransformation under microaerobic condition. The drug concentrations were measured over 6 timepoints collected between 0 and 12 hours of incubation by liquid-chromatography-coupled mass spectrometry (LC–MS); parameters: dose 5 uM, timepoint 0, 1.5, 3, 6, 9, 12 hours; details: 5 µM
[23] = The drug is tested on Parabacteroides merdae strain: DSM19495 for biotransformation under anaerobic condition. The drug concentrations were measured over 6 timepoints collected between 0 and 12 hours of incubation by liquid-chromatography-coupled mass spectrometry (LC–MS); parameters: dose 5 uM, timepoint 0, 1.5, 3, 6, 9, 12 hours; details: 5 µM
[24] = The drug is tested on Dorea formicigenerans strain: DSM3992 for biotransformation under anaerobic condition. The drug concentrations were measured over 6 timepoints collected between 0 and 12 hours of incubation by liquid-chromatography-coupled mass spectrometry (LC–MS); parameters: dose 5 uM, timepoint 0, 1.5, 3, 6, 9, 12 hours; details: 5 µM
[25] = The drug is tested on Eubacterium eligens strain: DSM3376 for biotransformation under anaerobic condition. The drug concentrations were measured over 6 timepoints collected between 0 and 12 hours of incubation by liquid-chromatography-coupled mass spectrometry (LC–MS); parameters: dose 5 uM, timepoint 0, 1.5, 3, 6, 9, 12 hours; details: lachnospira eligens, 5 µM
[26] = The drug is tested on Akkermansia muciniphila strain: DSM22959 for biotransformation under anaerobic condition. The drug concentrations were measured over 6 timepoints collected between 0 and 12 hours of incubation by liquid-chromatography-coupled mass spectrometry (LC–MS); parameters: dose 5 uM, timepoint 0, 1.5, 3, 6, 9, 12 hours; details: 5 µM
[27] = The drug is tested on Gemella haemolysans strain: DSM107751 for biotransformation under anaerobic condition. The drug concentrations were measured over 6 timepoints collected between 0 and 12 hours of incubation by liquid-chromatography-coupled mass spectrometry (LC–MS); parameters: dose 5 uM, timepoint 0, 1.5, 3, 6, 9, 12 hours; details: 5 µM
[28] = The drug is tested on Streptococcus anginosus strain: DSM20563 for biotransformation under anaerobic condition. The drug concentrations were measured over 6 timepoints collected between 0 and 12 hours of incubation by liquid-chromatography-coupled mass spectrometry (LC–MS); parameters: dose 5 uM, timepoint 0, 1.5, 3, 6, 9, 12 hours; details: 5 µM
[29] = The drug is tested on Blautia hansenii strain: DSM20583 for biotransformation under anaerobic condition. The drug concentrations were measured over 6 timepoints collected between 0 and 12 hours of incubation by liquid-chromatography-coupled mass spectrometry (LC–MS); parameters: dose 5 uM, timepoint 0, 1.5, 3, 6, 9, 12 hours; details: 5 µM

SMILES | Bacterial Biotransformation [1] | Bacterial Biotransformation [2] | Bacterial Biotransformation [3] | Bacterial Biotransformation [4] | Bacterial Biotransformation [5] | Bacterial Biotransformation [6] | Bacterial Biotransformation [7] | Bacterial Biotransformation [8] | Bacterial Biotransformation [9] | Bacterial Biotransformation [10] | Bacterial Biotransformation [11] | Bacterial Biotransformation [12] | Bacterial Biotransformation [13] | Bacterial Biotransformation [14] | Bacterial Biotransformation [15] | Bacterial Biotransformation [16] | Bacterial Biotransformation [17] | Bacterial Biotransformation [18] | Bacterial Biotransformation [19] | Bacterial Biotransformation [20] | also measured
CO[C@H]1C[C@@H]2CC[C@@H](C)[C@@](O)(O2)C(=O)C(=O)N2CCCC[C@H]2C(=O)O[C@H]([C@H](C)C[C@@H]2CC[C@@H](O)[C@H](OC)C2)CC(=O)[C@H](C)/C=C(\C)[C@@H](O)[C@@H](OC)C(=O)[C@H](C)C[C@H](C)/C=C/C=C/C=C/1C [SIROLIMUS] | Compound metabolized | Compound NOT metabolized | Compound NOT metabolized | Compound NOT metabolized | Compound NOT metabolized | Compound metabolized | Compound NOT metabolized | Compound NOT metabolized | Compound metabolized | Compound metabolized | Compound NOT metabolized | Compound metabolized | Compound NOT metabolized | Compound metabolized | Compound metabolized | Compound metabolized | Compound NOT metabolized | Compound NOT metabolized | Compound NOT metabolized | Compound NOT metabolized | Bacterial Biotransformation [21]: Compound metabolized; Bacterial Biotransformation [22]: Compound NOT metabolized; Bacterial Biotransformation [23]: Compound metabolized; Bacterial Biotransformation [24]: Compound metabolized; Bacterial Biotransformation [25]: Compound metabolized; Bacterial Biotransformation [26]: Compound NOT metabolized; Bacterial Biotransformation [27]: Compound metabolized; Bacterial Biotransformation [28]: Compound NOT metabolized; Bacterial Biotransformation [29]: Compound metabolized
C[C@H]1C[C@H]2[C@@H]3CCC4=CC(=O)C=C[C@]4(C)[C@@]3(F)[C@@H](O)C[C@]2(C)[C@@]1(O)C(=O)CO [BETAMETHASONE] | Compound metabolized | Compound NOT metabolized | Compound NOT metabolized | Compound NOT metabolized | Compound NOT metabolized | Compound NOT metabolized | Compound NOT metabolized | Compound NOT metabolized | Compound NOT metabolized | Compound metabolized | Compound NOT metabolized | Compound NOT metabolized | Compound NOT metabolized | Compound metabolized | Compound metabolized | Compound NOT metabolized | Compound NOT metabolized | Compound NOT metabolized | Compound NOT metabolized | Compound NOT metabolized | Bacterial Biotransformation [21]: Compound NOT metabolized; Bacterial Biotransformation [22]: Compound NOT metabolized; Bacterial Biotransformation [23]: Compound NOT metabolized; Bacterial Biotransformation [24]: Compound NOT metabolized; Bacterial Biotransformation [25]: Compound NOT metabolized; Bacterial Biotransformation [26]: Compound NOT metabolized; Bacterial Biotransformation [27]: Compound NOT metabolized; Bacterial Biotransformation [28]: Compound NOT metabolized; Bacterial Biotransformation [29]: Compound NOT metabolized
CCOc1nc2cccc(C(=O)O)c2n1Cc1ccc(-c2ccccc2-c2nnn[nH]2)cc1 | Compound NOT metabolized | Compound metabolized | Compound NOT metabolized | Compound NOT metabolized | Compound NOT metabolized | Compound NOT metabolized | Compound NOT metabolized | Compound NOT metabolized | Compound NOT metabolized | Compound NOT metabolized | Compound NOT metabolized | Compound NOT metabolized | Compound NOT metabolized | Compound NOT metabolized | Compound NOT metabolized | Compound NOT metabolized | Compound NOT metabolized | Compound NOT metabolized | Compound NOT metabolized | Compound NOT metabolized | Bacterial Biotransformation [21]: Compound NOT metabolized; Bacterial Biotransformation [22]: Compound NOT metabolized; Bacterial Biotransformation [23]: Compound NOT metabolized; Bacterial Biotransformation [24]: Compound NOT metabolized; Bacterial Biotransformation [25]: Compound NOT metabolized; Bacterial Biotransformation [26]: Compound NOT metabolized; Bacterial Biotransformation [27]: Compound NOT metabolized; Bacterial Biotransformation [28]: Compound NOT metabolized; Bacterial Biotransformation [29]: Compound NOT metabolized
